Source: patent US20200101014A1, “Stable Theranostic and Therapeutic Nanoemulsions Using Triphilic Semifluorinated Amphiphiles” (Wisconsin Alumni Research Foundation, priority 2017, published 2020)
pIC50: −log10 of the molar value.

Tests used:
Zebrafish (Danio rerio) = assay: In vivo developmental toxicity study, embryo-larval zebrafish model; parameters: species or system Zebrafish (Danio rerio) of the AB strain
Description: In Vivo Developmental Toxicity Study
Due to the novel nature of the M2F8H18 amphiphile, there is no preceding toxicity data. Though some predictions can be made from previous work in the Mecozzi lab, a thorough study of developmental effects related to M2F8H18 was performed using an embryo-larval zebrafish model. This animal model was selected because zebrafish eggs remain transparent from fertilization until the tissues become dense as a mature adult. Several developmental endpoints can be simultaneously monitored providing valuable developmental toxicity data for new chemicals. Following short-term exposure, survival, and hatching, non-lethal malformations were monitored including curved body axis and pericardia edemas. Mortality rate was also monitored.
Zebrafish (Danio rerio) of the AB strain were obtained from our collaborator, Dr. Michael Taylor at the University of Madison-Wisconsin School of Pharmacy, where the fish were cultured until sexual maturation for crossing. The fish were maintained in a light/dark cycle of 14:10 hat 28.5° C. in egg water (0.03% Instant Ocean, Blacksburg, Va., USA). Zebrafish were fed with live brine shrimps (Artemia nauplii) twice a day. Embryos were obtained from healthy adult fish with a ratio of 1:2 for female to male. Six breeding groups were placed in separate spawning aquariums, equipped with a mesh bottom to prevent the eggs from being cannibalized. Crossing was induced in the morning when the light was turned on. One hour later, eggs free of macroscopically discernable symptoms of infection and disease were collected, rinsed with egg water and transferred into Petri dishes until chemical exposure.
The embryo-larvae toxicity assay was carried out according to previous studies in the Taylor and Mecozzi laboratories. Briefly, 8 fertilized eggs of 2 hpf (hours post-fertilization) stages were placed into each well of a 24-well plate and each filled with 600 μL egg water. Six concentrations (1 mM, 333 μM, 111 μM, 37 μM, 12.3 μM, and 4.1 μM) plus two controls were plated. The plate was covered and incubated at 28.5° C. in a light/dark cycle of 14:10 throughout the 96 hpf exposure period. The observations of zebrafish development were made directly in the well using a stereomicroscope (Nikon SMZ18) every 24 hr. Endpoints including mortality, spontaneous movement, hatching success, pericardial edema, and curved body axis, were selected to monitor the effects of M2F8H18. Embryos and larvae were considered dead when no heartbeat was observed. The number of hatched embryos and a cumulative mortality tally was recorded every 24 hr from 2 hpf. The number of larvae displaying pericardial edemas or curved body axes were also recorded every 24 hr from 2 hpf. […]

[1] = test system: A549 non-small cell lung cancer cells; details: read-out: Reported IC50 for the A549 cell line; cited from earlier work
[2] = cited from earlier work

O=C(O)C(F)(F)C(F)(F)C(F)(F)C(F)(F)C(F)(F)C(F)(F)C(F)(F)F [PFOA, perfluorooctanoic acid]
Malformations (Zebrafish (Danio rerio); 333 μM): curved body axis and mild pericardia edemas | Mortality (fish) (Zebrafish (Danio rerio); 333 μM, 96 hpf): 67% | Mortality (Zebrafish (Danio rerio); 1 mM, 96 hpf): mortality in all fish | Malformations (Zebrafish (Danio rerio); lower PFOA concentrations (111 μM and lower)): No other malformations were noted

CC(=O)O[C@H]1C(=O)[C@@]2(C)[C@H]([C@H](OC(=O)c3ccccc3)[C@]3(O)C[C@H](OC(=O)[C@H](O)[C@@H](NC(=O)c4ccccc4)c4ccccc4)C(C)=C1C3(C)C)[C@]1(OC(C)=O)CO[C@@H]1C[C@@H]2O [Paclitaxel, paclitaxel]
pIC50 [1]: 8.40

FC(F)(F)C(F)(F)C(F)(F)C(F)(F)C(F)(F)C(F)(F)C(F)(F)C(F)(F)Br [perfluorooctyl bromide]
Solubility (in water) [2]: 5 nM
